Results from PMC4281103 (Journal of Medicinal Chemistry, 2014).

Columns and labels:
human μ-opioid receptor = human μ-opioid receptor (Homo sapiens, UniProt P35372); test: Inhibition of forskolin-induced cAMP accumulation in MOR-CHO cells; type: cell-based; conditions: selectivity for KOR
male Sprague–Dawley rats [1] = test: Rat spontaneous locomotor activity; type: in vivo; conditions: acute ip; 2 1.0 mg/kg, 24 1.0 mg/kg, 36 0.3 mg/kg; total ambulatory counts over 60 min
male Sprague–Dawley rats [2] = test: Rat reinstatement assay: cocaine-prime-induced reinstatement of drug seeking; type: in vivo; conditions: for inactive lever pressing during self-administration, extinction and reinstatement: 2 1.0 mg/kg, 24 1.0 mg/kg, 36 0.3 mg/kg; for dose required to significantly reduce active lever responses: ip, cocaine-prime-induced reinstatement, rat
human κ-opioid receptor = human κ-opioid receptor (Homo sapiens, UniProt P41145); type: cell-based
male Sprague–Dawley rats [3] = conditions: rat, in vivo; cited from earlier work

Chain of human μ-opioid receptor (P35372 whole entry): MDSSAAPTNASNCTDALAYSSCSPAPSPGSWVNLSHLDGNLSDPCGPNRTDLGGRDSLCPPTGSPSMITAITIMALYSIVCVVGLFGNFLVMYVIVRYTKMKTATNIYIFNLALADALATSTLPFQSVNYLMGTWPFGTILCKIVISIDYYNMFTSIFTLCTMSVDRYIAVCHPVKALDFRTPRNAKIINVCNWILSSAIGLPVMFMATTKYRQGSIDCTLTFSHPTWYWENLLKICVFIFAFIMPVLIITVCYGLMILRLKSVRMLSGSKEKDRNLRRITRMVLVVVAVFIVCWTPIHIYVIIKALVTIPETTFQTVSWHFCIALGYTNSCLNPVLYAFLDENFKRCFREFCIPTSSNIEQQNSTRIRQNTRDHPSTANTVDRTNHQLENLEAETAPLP
Chain of human κ-opioid receptor (P41145 whole entry): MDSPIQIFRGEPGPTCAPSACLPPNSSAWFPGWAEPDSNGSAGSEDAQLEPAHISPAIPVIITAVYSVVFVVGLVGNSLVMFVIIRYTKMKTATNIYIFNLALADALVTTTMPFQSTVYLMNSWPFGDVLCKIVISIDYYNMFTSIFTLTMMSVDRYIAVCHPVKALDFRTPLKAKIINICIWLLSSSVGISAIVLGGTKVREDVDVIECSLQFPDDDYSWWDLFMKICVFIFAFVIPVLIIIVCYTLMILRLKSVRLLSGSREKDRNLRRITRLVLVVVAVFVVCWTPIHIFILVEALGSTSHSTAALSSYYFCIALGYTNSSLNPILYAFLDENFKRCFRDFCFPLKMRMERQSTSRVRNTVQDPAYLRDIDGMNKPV

SMILES | activity at the MOR (human μ-opioid receptor) | effect on spontaneous locomotor activity vs vehicle-treated animals (male Sprague–Dawley rats [1]) | inactive lever pressing during self-administration, extinction and reinstatement (male Sprague–Dawley rats [2]) | dose required to significantly reduce active lever responses (male Sprague–Dawley rats [2]) [mg/kg] | other results
C#Cc1occc1[C@@H]1C[C@]2(C)[C@H]3C(=O)[C@@H](OC(C)=O)C[C@@H](C(=O)OC)[C@]3(C)CC[C@H]2C(=O)O1 [Compound 36] | no activity at the MOR | no significant difference | no significant changes | 0.1 | 
COC(=O)[C@@H]1C[C@H](OC(C)=O)C(=O)[C@H]2[C@@]1(C)CC[C@H]1C(=O)O[C@H](c3ccoc3C#N)C[C@]21C [Compound 50, (2S,4aR,6aR,7R,9S,10aS,10bR)-Methyl 9-Acetoxy-2-(2-cyanofuran-3-yl)-6a,10b-dimethyl-4,10-dioxododecahydro-1H-benzo[f]isochromene-7-carboxylate] |  |  |  |  | times less potent than 36 (KOR) (human κ-opioid receptor): more than 500 times
COC(=O)[C@@H]1C[C@H](OC(C)=O)C(=O)[C@H]2[C@@]1(C)CC[C@H]1C(=O)O[C@H](c3ccoc3C)C[C@]21C [Compound 24] | no activity at the MOR | no significant difference | no significant changes |  | 
COC(=O)[C@@H]1C[C@H](OC(C)=O)C(=O)[C@H]2[C@@]1(C)CC[C@H]1C(=O)O[C@H](c3ccoc3Br)C[C@]21C [Compound 2] | no activity at the MOR | no significant difference | no significant changes | 0.3 | 
COC(=O)[C@@H]1C[C@H](OC(C)=O)C(=O)[C@H]2[C@@]1(C)CC[C@H]1C(=O)O[C@H](c3ccoc3C=O)C[C@]21C [Compound 49, (2S,4aR,6aR,7R,9S,10aS,10bR)-Methyl 9-Acetoxy-2-(2-formylfuran-3-yl)-6a,10b-dimethyl-4,10-dioxododecahydro-1H-benzo[f]isochromene-7-carboxylate] |  |  |  |  | times less potent than 29 (KOR) (human κ-opioid receptor): approximately 7 times
COC(=O)[C@@H]1C[C@H](OC(C)=O)C(=O)[C@H]2[C@@]1(C)CC[C@H]1C(=O)O[C@H](c3ccoc3)C[C@]21C [Compound 1, Salvinorin A] |  |  |  |  | effect on drug-seeking behavior and spontaneous locomotor activity (male Sprague–Dawley rats [3]): reduces drug-seeking behavior at a dose that does not affect spontaneous locomotor activity
